IC50 data for 87 compounds are collected here from the supplement of paper PMC3493320.

Bounds are passed on as bounds.

The test has as its system NCI-H295R. Put plainly: IC50 (antiproliferative, ATP content). Conditions: 48 h. Summed up:
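Adrenocortical carcinoma cells (1500 per well) were seeded in serum-free ITS-supplemented DMEM in 1536-well plates and cultured overnight. Library compounds were then pin-transferred at 8 final concentrations from 0.6 nM to 46 µM, and plates were kept 48 h at 37 °C, 5% CO2. ATP was read as CellTiter-Glo luminescence after 20 min at room temperature and normalised to vehicle (0%) and positive control (100% inhibition). IC50 came from four-parameter logistic fits; compounds with no concentration response were recorded as above the top dose.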
As to `CCN(CC)C(=O)Nc1ccc(OCC(O)CNC(C)(C)C)c(C(C)=O)c1.Cl` (configuration not stated), the IC50 was more than 46 µM.
With `CN/C(=N\c1ccc(C2=NNC(=O)CC2C)cc1)NC#N` (configuration not stated) the figure was more than 46 µM; with `S=C=Nc1ccc(N=C=S)cc1`, more than 46 µM.
The same measure for `C[C@@H](CC)C(=O)O[C@H]2C[C@@H](C)\C=C3\C=C/[C@H](C)[C@H](CC[C@@H]1C[C@@H](O)CC(=O)O1)[C@@H]23`: more than 46 µM.
The same measure for `O=c1ccn(C2OC(COP(=O)(O)OC3C(CO)OC(n4ccc(=O)[nH]c4=O)C3O)C(O)C2O)c(=O)[nH]1` (configuration not stated): more than 46 µM; for `CC(=O)Nc1c(I)c(C(=O)[O-])c(I)c(N(C)C(C)=O)c1I.[Na+]`: more than 46 µM; for `CCCCC[C@H](O)/C=C/[C@H]1[C@H](O)CC(=O)[C@@H]1CCCCCCC(=O)O`: more than 46 µM.
For `CCOC(=O)C(CS)NCCNC(CS)C(=O)OCC.Cl.Cl` (configuration not stated), the IC50 was more than 46 µM.
With `CCCCCCCC(=O)OCC(O)CO` (configuration not stated) the figure was more than 46 µM; with `NS(=O)(=O)c1cc2c(cc1Cl)NC(C1CC3C=CC1C3)NS2(=O)=O` (configuration not stated), more than 46 µM; with `C[C@]12CCC(=O)C(O)=C1CC[C@@H]1[C@@H]2CC[C@]2(C)C(=O)CC[C@@H]12`, more than 46 µM.
The same measure for `CCN[C@H]1C[C@H](C)S(=O)(=O)c2sc(S(N)(=O)=O)cc21.Cl`: more than 46 µM; for `COc1ccc(S(=O)(=O)Nc2nnc(CC(C)C)s2)cc1`: more than 46 µM; for `C=C1[C@H](CO)[C@@H](O)C[C@@H]1n1cnc2c(=O)[nH]c(N)nc21`: more than 46 µM.
The same measure for `CCCCO`: more than 46 µM.
Compound `NCC[C@H](O)C(=O)N[C@@H]1C[C@H](N)[C@@H](O[C@H]2O[C@H](CN)CC[C@H]2N)[C@H](O)[C@H]1O[C@H]1O[C@H](CO)[C@@H](O)[C@H](N)[C@H]1O.O=S(=O)(O)O` displayed an IC50 of more than 46 µM.
In turn, `CNC(=O)C(N)CSC(C)C1=C(C)c2cc3[n-]c(cc4nc(cc5[n-]c(cc1n2)c(C)c5CCC(=O)O)C(CCC(=O)O)=C4C)c(C)c3C(C)SCC(N)C(=O)NC.[Fe+2]` (configuration not stated) yielded an IC50 of more than 46 µM.
The same measure for `Nc1cc(c(cc1S(=O)(N)=O)S(N)(=O)=O)C(/Cl)=C(/Cl)Cl`: more than 46 µM.
`C[C@]12CCC(=O)C=C1C=C[C@@H]1[C@@H]2CC[C@@]2(C)[C@H]1CC[C@@]21CCC(=O)O1` yielded an IC50 of more than 46 µM.
The same measure for `[O]=[Cd]`: more than 46 µM.
Regarding `CCOC(=O)NC(O)C(Cl)(Cl)Cl` (configuration not stated), the IC50 is more than 46 µM.
The same measure for `CCCCCCCCCCCCOCCCN`: more than 46 µM; for `C[C@@H]1CC[C@@]2(OC1)O[C@H]1C[C@H]3[C@@H]4CC[C@H]5C[C@@H](O)CC[C@]5(C)[C@H]4CC(=O)[C@]3(C)[C@H]1[C@@H]2C`: more than 46 µM.
With `CC(O)CN(CCN(CC(C)O)CC(C)O)CC(C)O` (configuration not stated) the figure was more than 46 µM; with `CCCCN1C[C@H](O)[C@@H](O)[C@H](O)[C@H]1CO`, more than 46 µM; with `CCc1nnc(NS(=O)(=O)c2ccc(N)cc2)s1`, more than 46 µM.
`O=C1NS(=O)(=O)c2ccccc21` displayed an IC50 of more than 46 µM.
With `O=C(O)CCC(=O)Nc1ccc(S(=O)(=O)Nc2nccs2)cc1` the figure was more than 46 µM; with `CN[C@@H]1[C@H](O[C@H]2[C@H](O[C@H]3[C@H](O)[C@@H](O)[C@H](NC(=N)N)[C@@H](O)[C@@H]3NC(=N)N)O[C@@H](C)[C@]2(O)C=O)O[C@@H](CO)[C@H](O)[C@H]1O.CN[C@@H]1[C@H](O[C@H]2[C@H](O[C@H]3[C@H](O)[C@@H](O)[C@H](NC(=N)N)[C@@H](O)[C@@H]3NC(=N)N)O[C@@H](C)[C@]2(O)C=O)O[C@@H](CO)[C@H](O)[C@H]1O.O=S(=O)(O)O.O=S(=O)(O)O.O=S(=O)(O)O`, more than 46 µM; with `CC(C)(C)NCC(O)c1ccc(O)c(CO)n1.Cl` (configuration not stated), more than 46 µM.
With `NCCCNCCSP(=O)(O)O` the figure was more than 46 µM; with `CN(C(=O)c1c(O)c2ccccc2n(C)c1=O)c1ccccc1`, more than 46 µM.
The same measure for `O=C(CN1CCNCC1)NC1CCCCC1`: more than 46 µM.
On to `Cc1cc(O)ccc1Cl`, for which the IC50 is more than 46 µM.
The same measure for `O=C(NCCNCC(O)COc1ccc(O)cc1)N1CCOCC1` (configuration not stated): more than 46 µM; for `O=C1c2ccccc2C(=O)c2c1ccc(O)c2O`: more than 46 µM; for `Cc1cc(N)c2ccccc2[n+]1CCCCCCCCCC[n+]1c(C)cc(N)c2ccccc21.[Cl-].[Cl-]`: more than 46 µM.
`CCCCCCCCOc1ccc(C(=O)c2ccccc2)c(O)c1`: the IC50 was more than 46 µM.
As for `CC1Cc2ccccc2N1NC(=O)c1ccc(Cl)c(S(N)(=O)=O)c1` (configuration not stated), the IC50 is more than 46 µM.
With `CC(=O)N(O)CCCCCNC(=O)CCC(=O)N(O)CCCCCNC(=O)CCC(=O)N(O)CCCCCN.CS(=O)(=O)O` the figure was more than 46 µM.
The same measure for `CCN(CC)C(=O)c1cccnc1`: more than 46 µM.
For `NC(=O)NC1NC(=O)NC1=O` (configuration not stated), the IC50 is more than 46 µM.
With `CNc1c2c(nn1C)CCCC2` the figure was more than 46 µM; with `O=C1C(=Cc2cccs2)CCCC1=Cc1cccs1`, more than 46 µM; with `Cc1c(F)c(N2CCNC(C)C2)cc2c1c(=O)c(C(=O)O)cn2C1CC1.Cl` (configuration not stated), more than 46 µM.
The same measure for `CC(Cc1ccccc1)NC=O` (configuration not stated): more than 46 µM; for `CC(C)Oc1ccc2c(=O)c(-c3ccccc3)coc2c1`: more than 46 µM.
Regarding `NCCNCCNCCN`, the IC50 was more than 46 µM.
Consider `O=C(O)c1ccccc1OP(=O)(O)O`, for which the IC50 was more than 46 µM.
With `CC(=O)OCC1=C(C(=O)[O-])N2C(=O)[C@@H](NC(=O)CSc3ccncc3)[C@H]2SC1.[Na+]` the figure was more than 46 µM; with `Nc1nc2c(ncn2COC(CO)CO)c(=O)[nH]1`, more than 46 µM; with `C[N+]1(CC2COC(c3ccccc3)(C3CCCCC3)O2)CCCCC1.[I-]` (configuration not stated), more than 46 µM.
Compound `COCC(=O)N(c1c(C)cccc1C)C(C)C(=O)OC` (configuration not stated) had an IC50 of more than 46 µM.
`CC(=O)OCC1=C(C(=O)O)N2C(=O)[C@@H](N)[C@H]2SC1` yielded an IC50 of more than 46 µM.
The compound `O=C(CCCN1CCN(c2ccccn2)CC1)c1ccc(F)cc1` returned an IC50 of more than 46 µM.
As for `O=[C@](C)[C@@H]3[C@](CC2)(C)[C@](CC3)([H])[C@@]1([H])[C@@]2([H])[C@](CC[C@H](O)C4)(C)C4=CC1`, the IC50 was more than 46 µM.
Take `COc1ccc2c(c1)N(C[C@H](C)CN(C)C)c1ccccc1S2.O=C(O)/C=C\C(=O)O`: the IC50 is more than 46 µM.
With `CCCCCC[C@@H](O)C/C=C\CCCCCCCC(=O)[O-].[K+]` the figure was more than 46 µM; with `N[C@@H](Cc1ccc(O)cc1)C(=O)O`, more than 46 µM; with `COc1ccccc1N1CCN(CCCNc2cc(=O)n(C)c(=O)n2C)CC1.Cl`, more than 46 µM.
Regarding `Nc1ccc(C(=O)Oc2ccccc2)c(O)c1`, the IC50 is more than 46 µM.
With `C#CCN[C@@H]1CCc2ccccc21.CS(=O)(=O)O` the figure was more than 46 µM; with `CN1C(C(=O)Nc2ccccn2)=C(O)c2ccccc2S1(=O)=O`, more than 46 µM; with `N\1(C(NC(/C(=C/1)C)=O)=O)[C@@H]2O[C@H](CO)[C@H](C2)O`, more than 46 µM.
With `F[C@]2([C@](C)3CC4)[C@@H](O)C[C@]([C@](C5)([H])[C@@]([H])2CCC3=CC4=O)(C)[C@@]1([C@](CCl)=O)[C@@H]5OC(C)(C)O1` the figure was more than 46 µM; with `N#CN`, more than 46 µM.
The same measure for `Cc1ccc(S(=O)(=O)O)cc1.NC1CCN(c2nc3c(cc2F)c(=O)c(C(=O)O)cn3-c2ccc(F)cc2F)C1` (configuration not stated): more than 46 µM; for `C[N@@+]1([O-])[C@@H]2CC[C@H]1C[C@@H](OC(=O)C(CO)c1ccccc1)C2` (some centres not stated): more than 46 µM.
`Cl.Nc1c2c(nc3c1CCC3)CCCC2.O` yielded an IC50 of more than 46 µM.
With `CC(=O)Oc1ccccc1C(=O)O` the figure was more than 46 µM.
Compound `CC(C)NCC(O)c1ccc(O)c(O)c1` (configuration not stated) gave an IC50 of more than 46 µM.
The compound `Cc1c(-c2ccccc2)oc2c(C(=O)OCCN3CCCCC3)cccc2c1=O.Cl` returned an IC50 of more than 46 µM.
With `CCCC(=O)O[C@]1(C(=O)CCl)[C@@H](C)C[C@H]2[C@@H]3CCC4=CC(=O)C=C[C@]4(C)[C@@]3(F)C(=O)C[C@@]21C` the figure was more than 46 µM; with `O=C([C@@H](N(C)[C@]([C@H](CCC4)N4C([C@@H](CC)N5)=O)=O)CC2=CC=CC=C2)N(CCC1=O)C(C1)C(N[C@H](C(OC(C)[C@H](NC(C6=NC=CC=C6O)=O)C5=O)=O)C3=CC=CC=C3)=O` (some centres not stated), more than 46 µM.
The same measure for `CN1CCN(C2=Nc3cc(Cl)ccc3Nc3ccccc32)CC1`: more than 46 µM; for `C[C@@H]1C[C@H]2[C@@H]3CCC4=CC(=O)C=C[C@]4(C)[C@@]3(F)C(O)C[C@]2(C)[C@H]1C(=O)CO` (some centres not stated): more than 46 µM.
With `Cc1ccc2nc(N)[nH]c(=O)c2c1Sc1ccncc1.Cl.Cl` the figure was more than 46 µM; with `CNCCC(Oc1ccccc1OC)c1ccccc1` (configuration not stated), more than 46 µM; with `Cc1ncc(CO)c(CN)c1O.Cl.Cl`, more than 46 µM.
In turn, `O=c1[nH]c2cc(C(F)(F)F)c(N3CCOCC3)cc2n(CP(=O)(O)O)c1=O` displayed an IC50 of more than 46 µM.
Turning to `CCNC(C)Cc1cccc(C(F)(F)F)c1` (configuration not stated), the IC50 was more than 46 µM.
With `NCc1ccccc1Sc1ccccc1CO` the figure was more than 46 µM; with `COc1c2occc2cc2ccc(=O)oc12`, more than 46 µM; with `CC(CCc1ccccc1)NCC(O)c1ccc(O)c(C(N)=O)c1.Cl` (configuration not stated), more than 46 µM.
The same measure for `CC(=O)NS(=O)(=O)c1ccc(N)cc1`: more than 46 µM; for `CC(=O)CCCCn1c(=O)c2c(ncn2C)n(C)c1=O`: more than 46 µM.
With `CC(=O)Oc1c(C)c(C)c2c(c1C)CC[C@@](C)(CCC[C@H](C)CCC[C@H](C)CCCC(C)C)O2` the figure was more than 46 µM.

As usually defined, the IC50 is the midpoint of a concentration-inhibition curve. High values mean a need for much substance, low ones inhibition by little substance.
